Measurements published in ChEMBL document CHEMBL1141016, “Orally bioavailable prodrugs of a BCS class 2 molecule, an inhibitor of HIV-1 reverse transcriptase” (Bioorg Med Chem Lett, 2008).
In brackets after ≈: the same amount, converted by molar mass.

How the values were obtained:
Rattus norvegicus [1] = test: Tmax in Hanover Wistar rat assessed as 5-(6-chloro-2-fluoro-3-((5-methyl-6-oxo-1,6-dihydropyridazin-3-yl)methyl)phenoxy)isophthalonitrile level at 50 mg/kg, po; format: ADME, organism-based; parameters: dose 50 mg/kg, route oral; settings: in vivo
Rattus norvegicus [2] = test: Cmax in Hanover Wistar rat assessed as 5-(6-chloro-2-fluoro-3-((5-methyl-6-oxo-1,6-dihydropyridazin-3-yl)methyl)phenoxy)isophthalonitrile level at 50 mg/kg, po; format: ADME, organism-based; parameters: dose 50 mg/kg, route oral; settings: in vivo
Rattus norvegicus [3] = test: AUC (0 to 24 hrs) in Hanover Wistar rat assessed as 5-(6-chloro-2-fluoro-3-((5-methyl-6-oxo-1,6-dihydropyridazin-3-yl)methyl)phenoxy)isophthalonitrile level at 50 mg/kg, po; parameters: unit not given here; settings: in vivo
[4] = Aqueous stability assessed as half life at pH 6.5; format: physicochemical
[5] = Aqueous stability assessed as half life at pH 2; format: physicochemical
[6] = Tmax in Hanover Wistar rat at 50 mg/kg, po; format: ADME, organism-based; parameters: dose 50 mg/kg, route oral; settings: in vivo
Rattus norvegicus [7] = test: AUC (0 to 24 hrs) in Hanover Wistar rat at 5 mg/kg, po; settings: in vivo
[8] = Cmax in Hanover Wistar rat at 50 mg/kg, po; format: ADME, organism-based; parameters: dose 50 mg/kg, route oral; settings: in vivo
[9] = Tmax in Hanover Wistar rat at 5 mg/kg, po; format: ADME, organism-based; parameters: dose 5 mg/kg, route oral; settings: in vivo
[10] = Cmax in Hanover Wistar rat at 5 mg/kg, po; format: ADME, organism-based; parameters: dose 5 mg/kg, route oral; settings: in vivo
[11] = Permeability across human Caco-2 cells; format: ADME, cell-based; settings: read-out: permeability
[12] = Dissociation constant, pKa of the compound; format: physicochemical
[13] = Aqueous solubility at pH 6.5; format: physicochemical
Rattus norvegicus [14] = test: AUC (0 to 24 hrs) in Hanover Wistar rat at 50 mg/kg, po; settings: in vivo

| Compound | Tmax (Rattus norvegicus [1]) | Cmax (Rattus norvegicus [2]) | AUC (Rattus norvegicus [3]) | half-life [4] | half-life [5] | Tmax [6] | AUC (Rattus norvegicus [7]) | Cmax [8] | Tmax [9] | Cmax [10] | Papp [11] | pKa [12] | solubility [13] | AUC (Rattus norvegicus [14]) |
| --- | --- | --- | --- | --- | --- | --- | --- | --- | --- | --- | --- | --- | --- | --- |
| Cc1cc(Cc2ccc(Cl)c(Oc3cc(C#N)cc(C#N)c3)c2F)nn(COP(=O)([O-])[O-])c1=O.[Na+].[Na+] | 8 h | 12.7 µM | 178 | > 1440 min | > 1 days |  |  |  |  |  |  |  |  |  |
| Cc1cc(Cc2ccc(Cl)c(Oc3cc(C#N)cc(C#N)c3)c2F)nn(COC(=O)CCC(=O)O)c1=O | 2.7 h | 13.2 µM | 142 | 2400 min | 19.2 days |  |  |  |  |  |  |  |  |  |
| Cc1cc(Cc2ccc(Cl)c(Oc3cc(C#N)cc(C#N)c3)c2F)nn(COC(=O)OCCN(C)C)c1=O.Cl | 2 h | 7.3 µM | 108 | 54 min | 12 days |  |  |  |  |  |  |  |  |  |
| Cc1cc(Cc2ccc(Cl)c(Oc3cc(C#N)cc(C#N)c3)c2F)n[nH]c1=O |  |  |  |  |  | 3.3 h | 6.8 uM.hr/ml | 1500 nM | 3.7 h | 960 nM | 19 ×10⁻⁶ cm/s | 10.5 | 0.3 µg/mL (≈ 0.76 µM) | 20.3 uM.hr/ml |
| Cc1cc(Cc2ccc(Cl)c(Oc3cc(C#N)cc(C#N)c3)c2F)nn(COC(=O)[C@@H]2CCCN2)c1=O.Cl | 4.7 h | 7.3 µM | 108 | < 18 min | 0.708 days |  |  |  |  |  |  |  |  |  |
| Cc1cc(Cc2ccc(Cl)c(Oc3cc(C#N)cc(C#N)c3)c2F)nn(COC(=O)OCCN2CCOCC2)c1=O.Cl | 3.3 h | 5.6 µM | 89 | 210 min | 12.5 days |  |  |  |  |  |  |  |  |  |

Further lines, results first:

| Tmax (Rattus norvegicus [1]) | Cmax (Rattus norvegicus [2]) | AUC (Rattus norvegicus [3]) | half-life [4] | half-life [5] | Tmax [6] | AUC (Rattus norvegicus [7]) | Cmax [8] | Tmax [9] | Cmax [10] | Papp [11] | pKa [12] | solubility [13] | AUC (Rattus norvegicus [14]) | Compound |
| --- | --- | --- | --- | --- | --- | --- | --- | --- | --- | --- | --- | --- | --- | --- |
| 4 h | 9.1 µM | 134 | 192 min | 59 days |  |  |  |  |  |  |  |  |  | Cc1cc(Cc2ccc(Cl)c(Oc3cc(C#N)cc(C#N)c3)c2F)nn(COC(=O)[C@@H](N)C(C)C)c1=O.Cl |
| 4.7 h | 8.8 µM | 101 | 282 min | 0.417 days |  |  |  |  |  |  |  |  |  | Cc1cc(Cc2ccc(Cl)c(Oc3cc(C#N)cc(C#N)c3)c2F)nn(COC(=O)c2cccnc2)c1=O.Cl |
| 4 h | 6.3 µM | 93 | 60 min | 1.58 days |  |  |  |  |  |  |  |  |  | Cc1cc(Cc2ccc(Cl)c(Oc3cc(C#N)cc(C#N)c3)c2F)nn(COC(=O)CN)c1=O.Cl |
